Laboratory results reported in publication PMC3348524, “Diverse Effects of Glutathione and UPF Peptides on Antioxidant Defense System in Human Erythroleukemia Cells K562” (International Journal of Peptides, 2012).
Read-outs that look alike come from different tables or passages of the source. Numbered stars: 1 amine (or outer) side, 2 acyl side, 3 side chain; on linkers, the order of the positions; unused ones are H or OH. Bridge positions count the residues as written; N and C are the ends. Square brackets hold non-standard residues; d marks the D form. Peptide text beside a SMILES is read from it. I, II: the chains in the order shown. γGlu = O=C(O)[C@H](CCC(=O)[*:2])N[*:1]

Assays:
[1] = pKa of thiol groups, spectrophotometric titration; assay type: physicochemical; conditions: 50 μM peptide in phosphate buffered saline, titrated with 1 M NaOH, absorbance at 240 nm
Description: The ratio of thiol and thiolate concentrations were measured spectrophotometrically at 240 nm on a PerkinElmer Lambda 25 spectrometer similarly as previously for GSH and α-GSH [21]. 1 mL of 50 μM peptide solution in phosphate buffered saline (Calbiochem, USA) was titrated with 5 μL volumes of 1 M NaOH and pH and absorbance changes were determined after each addition. The results were corrected to consider the dilution of the assay mixture during titration.

[2] = previous work; cited from earlier work
Source text: UPF1 and UPF17 have also shown different effects in free radical scavenging experiments. According to the classification of kinetic behavior by Sánches-Moreno et al., UPF17 is classified as fast and UPF1 as intermediate DPPH radical scavenger. […] This raised a question about pKa values for the thiol groups of UPF peptides. Previously, the change of γ-peptide bond to α-peptide bond has also been investigated f ...

K562 cells = test system: K562 cells; design: method as in PMID 17577738, PMID 15489015; conditions: cited from earlier work
[3] = test system: primary culture of cerebellar granule cells; design: method as in PMID 17577738, PMID 15489015; conditions: cited from earlier work
[4] = test system: equine kidney γ-glutamyltranspeptidase; test: Stability towards γ-glutamyltranspeptidase (HPLC-MS); conditions: 1 mM peptide, 0.3 mg/mL equine kidney GGT, 0.1 M Tris-HCl pH 7.4, 0.1% EDTA, 6 mM Gly-Gly acceptor, 37°C, 1 h; HPLC-MS read-out
Description: 6 mM Gly-Gly was added as an acceptor for γ-Glu moiety [20]. GSH was incubated with GGT under the same conditions as the control. The samples were heat-inactivated, centrifuged at 10000 g and +4°C for 5 min, and kept on ice until analyzed. Supernatants were analyzed on a Prominence HPLC (Shimadzu, Japan) and Q-Trap 3200 (Applied Biosystems, USA) mass spectrometry tandem. Luna C18 100 × 2 mm, 3 μm column from Phenomenex was used for sample separation. Solvent A was a mixture of 99.9% water and 0.1% HCOOH, and solvent B was a mixture of 99.9% acetonitrile and 0.1% HCOOH (mass spectrometry grade, Riedel-de Haėn, Germany). Samples were eluated at a flow rate of 0.1 mL/min, gradient started with 5 min at isocratic flow of solvent A, concentration of solvent B increased up to 30% in 25 min, followed by wash with 100% solvent B in 20 min. Enhanced MS scans were performed in negative mode with rate 1000 amu/s between mass range 50–1700 Da. Ionspray voltage was set to −4500 V, declustering potential to −30 V and entrance potential to −10 V.

SMILES | pKa of thiol group [1] | pKa of thiol group [2] | concentration up to which nontoxic for K562 cells (K562 cells) [µM] | concentration up to which no toxic effect on cerebellar granule cells [3] | degradation by GGT [4]
N[C@@H](CCC(=O)N[C@@H](CS)C(=O)NCC(=O)O)C(=O)O [GSH, γ-L-Glu-L-Cys-Gly, reference compound] | 9.0 ± 0.3 | 9.0 ± 0.1 |  |  | 
COc1ccc(C[C@H](N)C(=O)N[C@@H](CCC(=O)N[C@@H](CS)C(=O)NCC(=O)O)C(=O)O)cc1 [UPF1, Tyr(Me)-γ-Glu-Cys-Gly] (H-Y(Me)[γGlu]CG-OH) | 9.3 ± 0.1 |  | ≤ 200 | up to 100 μM | not degraded
COc1ccc(C[C@H](N)C(=O)N[C@@H](CCC(=O)O)C(=O)N[C@@H](CS)C(=O)NCC(=O)O)cc1 [UPF17, Tyr(Me)-Glu-Cys-Gly] (H-Y(Me)ECG-OH) | 9.4 ± 0.2 |  | ≤ 200 |  | 
COc1ccc(C[C@H](N)C(=O)N[C@@H](CCC(=O)N[C@@H](CSSC[C@H](NC(=O)CC[C@H](NC(=O)[C@@H](N)Cc2ccc(OC)cc2)C(=O)O)C(=O)NCC(=O)O)C(=O)NCC(=O)O)C(=O)O)cc1 [dimerised UPF1] (I: H-Y(Me)[γGlu]CG-OH / II: H-Y(Me)[γGlu]CG-OH; disulfide I:3-II:3) |  |  |  |  | not detected
N[C@@H](CCC(=O)O)C(=O)N[C@@H](CS)C(=O)NCC(=O)O [α-GSH] (H-Glu-Cys-Gly-OH) | 9.1 ± 0.1 | 9.1 ± 0.1 |  |  | 
